Values joined by “and” are separate entries in the source; they are usually repeats but may differ in a detail not shown here. Equal entries are not always repeated.
What was measured:
normal human melanocytes [1] = assay: Melanin synthesis by normal human melanocytes (10-day culture); format: cell-based; conditions: 10 days
Procedure: The melanogenesis-stimulating effect of silybin was measured on normal human melanocyte cultures.
(§1) For silybin, the following were determined:
(§2) after culturing for 10 days under standard conditions, in 24-well plates, in Promocell medium free of “phorbol myristate acetate” (PMA):
the amount of melanin present in the cultures, by spectrophotometric measurement of the melanin produced, after alkaline extraction, relative to 100% of the control (the control corresponds to the test performed without test compound);

normal human melanocytes [2] = assay: Cytotoxicity (MTT reduction) and amount of proteins (Bradford), normal human melanocyte cultures; format: cell-based; conditions: for Proteins / MTT: 10 days; for MTT: control = 100
Description: as §2
the cytotoxicity, by estimating the reduction of “methyl thiazolyl tetrazolium” (MTT), the amount of proteins, by assay according to the Bradford method and observation of the cell lawns, […]

normal human melanocytes [3] = assay: Proliferation (3H-thymidine incorporation), normal human melanocytes; format: cell-based; conditions: 3 days; for Proliferation (3H-thymidine), cpm: labelling last 24 hours
Procedure: (§3) after culturing for 3 days under standard conditions:
the effects on the proliferation of normal human melanocytes by incorporation of tritiated thymidine into DNA (labelling for the last 24 hours),

normal human melanocytes [4] = assay: Protein synthesis (3H-leucine incorporation), normal human melanocytes; format: cell-based; conditions: for Protein synthesis (3H-leucine), % of control / Protein synthesis (3H-leucine), cpm: 3 days; for Protein synthesis (3H-leucine), cpm: labelling last 24 hours
Procedure: as §3
the effects on the metabolism of normal human melanocytes by incorporation of tritiated leucine into neosynthesized proteins (labelling for the last 24 hours).

[5] = tested on: B16F10-line mouse melanoma cells; assay: Melanin synthesis by B16F10-line melanocytes (7-day culture); format: cell-based; conditions: 7 days
Procedure: The melanogenesis-stimulating effect of silybin was measured on B16F10-line mouse melanoma cells.
as §1
(§4) after culturing for 7 days under standard conditions, in 24-well plates, DMEM medium containing 10% calf serum:
the amount of melanin present in the cultures, by spectrophotometric measurement of the melanin produced, after alkaline extraction, relative to 100% of the control (the control corresponds to the test performed without test compound).

[6] = tested on: B16F10-line mouse melanoma cells; assay: Cytotoxicity (MTT) and amount of proteins (Bradford), B16F10 cultures; format: cell-based; conditions: for Proteins / MTT: 7 days; for MTT: control = 100
Description: as §4
the cytotoxicity, by estimating the […] of MTT, the amount of proteins, by assay according to the Bradford method and observation of the cell lawns, […]

[7] = target: T1, receptor MC1-R (melanocortin-1 receptor) (Mus musculus, UniProt Q01727); assay: Displacement of [125I]NDP-alpha-MSH from receptor MC1-R; format: binding
T1 sequence (Q01727 whole entry): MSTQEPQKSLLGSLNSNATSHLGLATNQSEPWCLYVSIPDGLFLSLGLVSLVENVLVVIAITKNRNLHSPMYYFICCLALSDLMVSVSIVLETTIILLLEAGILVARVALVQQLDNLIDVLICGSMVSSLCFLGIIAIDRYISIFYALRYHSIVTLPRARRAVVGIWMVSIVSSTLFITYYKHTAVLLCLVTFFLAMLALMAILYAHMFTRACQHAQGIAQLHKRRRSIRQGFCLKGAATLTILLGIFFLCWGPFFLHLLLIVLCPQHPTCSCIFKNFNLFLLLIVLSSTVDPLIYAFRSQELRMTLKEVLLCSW
Procedure: The binding of silybin to the receptor MC1-R (melanocortin-1 receptor) was studied.
Silybin was tested in a test of displacement of an extremely powerful MC1-R ligand: displacement of [^125I]NDP-alpha-MSH, (according to Siegrist et al, 1988, J. Recept. Res., 8: 323-343).

[8] = tested on: normal human keratinocytes; assay: Phagocytosis of fluorescent beads by keratinocytes (flow cytometry); format: cell-based; conditions: for % Positive cells (cells which have phagocytozed more than twice the basal phagocytosis), single replicates / Positive cells, % Control / % Positive cells, Mean: 24 hours; for % Positive cells, Mean: triplicate
Procedure: The aim of this test is to show the effect of the compounds used according to the invention on modulation of the phagocytosis of particles by the keratinocytes.
Method: Normal human keratinocytes are cultured in KSFM medium and treated for 24 hours with the compounds according to the invention, in the presence of calibrated fluorescent beads (Molecular Probes) of the size of melanosomes. The phagocytosis of the particles is visualized by fluorescence microscopy, and the cells are then harvested after trypsination and analysed by flow cytometry, to determine the number of cells that have phagocytozed a threshold number of particles and the intensity of the phagocytozed overall fluorescence (10 000 cells analysed per condition, in triplicate).

[9] = tested on: normal human hair follicles; assay: Protection against degeneration of cultured human hair follicles; format: cell-based; conditions: precultured 7 days, then treated 7 days
Description: The aim of this test is to show the effect of the compounds used according to the invention on degeneration of the follicles in in vitro cultures of human hair follicles.
Method: Normal human hair follicles are isolated by microdissection of human scalp (lifting) and cultured as in Example 4. The bulbs are all precultured (“aged”, without treatment) for 7 days (D7), and then left untreated or treated by the invention for a further 7 days (D14). The follicles are photographed and the morphology is analysed.

keratinocytes = assay: Proliferation/protein synthesis of keratinocytes; format: cell-based
[10] = target: T1, receptor MC1-R (melanocortin-1 receptor); conditions: of the order of; read-out: Affinity of the ligand for MC1-R; cited from earlier work

In the case of `COc1cc(C2Oc3cc([C@H]4Oc5cc(O)cc(O)c5C(=O)[C@@H]4O)ccc3OC2CO)ccc1O` (stereo partly drawn) [Silybin, 2-[(2R,3R)-2,3-dihydro-3-(4-hydroxy-3-methoxyphenyl)-2-(hydroxymethyl)-1,4-benzodioxin-6-yl]-2,3-dihydro-3,5,7-trihydroxy-4H-1-benzopyran-4-one, (2R,3R)-(9CI)], the Melanin (normal human melanocytes [1]; 0.00004% (w/v)) is reported as 31.9 µg/mL, the “Melanin, % relative to 100% of the control” value (normal human melanocytes [1]; 0.00004% (w/v)) is reported as 115% and the Melanin (normal human melanocytes [1]; 0.0002% (w/v)) is reported as 37.1 µg/mL. The “Melanin, % relative to 100% of the control” value (normal human melanocytes [1]; 0.0002% (w/v)) was 134%, the Melanin (normal human melanocytes [1]; 0.001% (w/v)) was 41.5 µg/mL and the “Melanin, % relative to 100% of the control” value (normal human melanocytes [1]; 0.001% (w/v)) was 150%. It also gave a Proteins (normal human melanocytes [2]; 0.00004% (w/v)) of 0.765 mg/mL, an MTT (normal human melanocytes [2]; 0.00004% (w/v)) of 113% and a Proteins (normal human melanocytes [2]; 0.0002% (w/v)) of 0.792 mg/mL. For the same compound, the MTT (normal human melanocytes [2]; 0.0002% (w/v)) was 126%, the Proteins (normal human melanocytes [2]; 0.001% (w/v)) was 0.830 mg/mL and the MTT (normal human melanocytes [2]; 0.001% (w/v)) was 128%. The “Cytotoxic activity (in words)” value (normal human melanocytes [2]; normal human melanocytes) was “without any cytotoxic activity”, the “Proliferation (3H-thymidine), % of control” value (normal human melanocytes [3]; 0.0002%) was 83% and the “Proliferation (3H-thymidine), cpm” value (normal human melanocytes [3]; 0.0002%) was 5638 cpm. For the same compound, the “Proliferation (3H-thymidine), % of control” value (normal human melanocytes [3]; 0.001%) was 53%, the “Proliferation (3H-thymidine), cpm” value (normal human melanocytes [3]; 0.001%) was 3622 cpm and the “Protein synthesis (3H-leucine), % of control” value (normal human melanocytes [4]; 0.0002%) was 120%. The “Protein synthesis (3H-leucine), cpm” value (normal human melanocytes [4]; 0.0002%) was 11705 cpm, the “Protein synthesis (3H-leucine), % of control” value (normal human melanocytes [4]; 0.001%) was 124% and the “Protein synthesis (3H-leucine), cpm” value (normal human melanocytes [4]; 0.001%) was 12099 cpm. The Protein synthesis increase (normal human melanocytes [4]; protein neosynthesis over 72 hours) was 20%, the Melanin ([5]; 0.00004%) was 13.0 µg/mL and the “Melanin, % relative to 100% of the control” value ([5]; 0.00004%) was 100%. The Melanin ([5]; 0.0002%) was 15.0 µg/mL, the “Melanin, % relative to 100% of the control” value ([5]; 0.0002%) was 115% and the Melanin ([5]; 0.001%) was 33.0 µg/mL. For the same compound, the “Melanin, % relative to 100% of the control” value ([5]; 0.001%) was 250% and 254%, the Proteins ([6]; 0.00004%) was 1.553 mg/mL and the MTT ([6]; 0.00004%) was 100%. The Proteins ([6]; 0.0002%) was 1.594 mg/mL, the MTT ([6]; 0.0002%) was 100% and the Proteins ([6]; 0.001%) was 1.457 mg/mL. For the same compound, the MTT ([6]; 0.001%) was 89%, the “Cell metabolism according to MTT and protein synthesis parameters (in words)” value ([6]; B16F10) was “without modification of the cell metabolism” and the “Displacement of [125I]NDP-alpha-MSH” value ([7]; at 100 μM (0.005%)) was 10%. The “Displacement of [125I]NDP-alpha-MSH” value ([7]; at 500 μM) was 30%, the “% Positive cells (cells which have phagocytozed more than twice the basal phagocytosis), single replicates” value ([8]; 0.0002%) was 44.29% and 42.92% and 45.88% and the “Positive cells, % Control” value ([8]; 0.0002%) was 124%. The “% Positive cells, Mean” value ([8]; 0.0002%) was 44%, the “% Positive cells (cells which have phagocytozed more than twice the basal phagocytosis), single replicates” value ([8]; 0.001%) was 52.19% and 50.74% and 49.94% and the “Positive cells, % Control” value ([8]; 0.001%) was 143%. The “% Positive cells, Mean” value ([8]; 0.001%) was 51%, the “Phagocytosis of fluorescent particles (in words)” value ([8]; flow cytometry and fluorescence microscopy) was “significant and reproducible stimulation of phagocytosis” and the “Pigmentation of the hair root” value [9] was “display pigmentation of all of the hair root”. The “Effect on proliferation/protein synthesis of keratinocytes” value (keratinocytes) was “did not otherwise show any effect”.

In the case of [^125I]NDP-alpha-MSH, the Kd [10] is given as roughly 100 pM.
